Tests used:
Type in all cases: cell-based
[1] = tested on: IL-6 (THP-1 human monocyte cell line); assay: IL-6 inhibition in LPS-stimulated THP-1 cells (HTRF); details: for EC50: IL-6 inhibition, LPS-stimulated THP-1 cells, HTRF; for inhibition at 10 µM: THP-1, read-out: percentage in parentheses beside EC50 >10 (IL-6 inhibition)
Method in brief: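 After 24 h in 1% FBS medium, cells had compound 2 h before 500 ng/mL LPS, then 22 h more at 37 °C. DMSO-normalized HTRF signal (665/620 nm ratio, anti-IL-6 antibody pair) was fitted with a variable-slope four-parameter model to give EC50.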

[2] = tested on: primary human fibroblasts derived from IPF patients (LL29 cells) treated with TGF-β1; assay: Inhibition of the fibrotic process: αSMA staining in TGF-β1 treated LL29 fibroblasts; details: Fibroblast; for EC50: 96 h, LL29 cells, TGF-β1 20 ng/mL, 4 days, % αSMA positive cells; for inhibition at 10 µM: read-out: percent inhibition at 10 μM
Method in brief: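 Read-out after 4-day incubation: αSMA staining with 1 μM SYTOX green nuclear counterstain (30 min, room temperature). Cells were LL29 primary fibroblasts from IPF patients, in 1% FBS F12, exposed to TGF-β1 with test compound, referenced to TGF-β1/DMSO control wells.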

[3] = tested on: Wnt activity (Sp5-Luc reporter, SW480 colon carcinoma cells); assay: Wnt activity screening assay, Sp5-Luc reporter gene in SW480 cells; details: Homo sapiens; for EC50: Sp5-Luc reporter, SW480 cells, overnight incubation; for inhibition at 10 µM: SW480, read-out: percent inhibition at 10 μM
Method in brief: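 Read-out is BrightGlo luminescence, normalized to DMSO-treated cells and fitted by four-parameter variable-slope regression for EC50. Reporter cells: SW480 colon carcinoma carrying a stable lentiviral Sp5-Luc construct with eight TCF/LEF sites, seeded 4,000/well in 1% FBS, incubated overnight at 37° C.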

[4] = tested on: SW480 colon cancer cells; assay: Cell viability assay (CellTiter-Blue), SW480 cells, four days; details: Homo sapiens; for EC50: 96 h, SW480 cell viability, four days, CellTiter-Blue; for inhibition at 10 µM: SW480, read-out: percent inhibition at 10 μM
Method in brief: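 Fluorescence from resazurin reduced to resorufin by metabolically active cells was the read-out, taken after ~3 h with CellTiter-Blue.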

| SMILES | EC50 [1] [µM] | EC50 [2] [µM] | inhibition at 10 µM [2] [%] | EC50 [3] [µM] | EC50 [4] [µM] | inhibition at 10 µM [1] [%] | inhibition at 10 µM [3] [%] | inhibition at 10 µM [4] [%] |
| --- | --- | --- | --- | --- | --- | --- | --- | --- |
| CC(C)(C)C(=O)Nc1cncc(-c2ccc3[nH]nc(-c4cc5c(-c6cccs6)ccnc5[nH]4)c3c2)c1 [Compound 344, N-(5-(3-(4-(Thiophen-2-yl)-1H-pyrrolo[2,3-b]pyridin-2-yl)-1H-indazol-5-yl)pyridin-3-yl)pivalamide] | 0.053 | > 10 | 0 | 0.215 | 0.606 | – | – | – |
| c1csc(-c2ccnc3[nH]c(-c4n[nH]c5ccc(-c6cnccn6)cc45)cc23)c1 [Compound 712, 5-(Pyrazin-2-yl)-3-(4-(thiophen-2-yl)-1H-pyrrolo[2,3-b]pyridin-2-yl)-1H-indazole] | > 10 | 1.4 | – | > 10 | > 10 | 36.3 | 5.6 | 13.9 |
| FC1(F)CCN(Cc2cncc(-c3ccc4[nH]nc(-c5cc6c(N7CCCCC7)ccnc6[nH]5)c4c3)c2)C1 [Compound 194, 5-(5-((3,3-Difluoropyrrolidin-1-yl)methyl)pyridin-3-yl)-3-(4-(piperidin-1-yl)-1H-pyrrolo[2,3-b]pyridin-2-yl)-1H-indazole] | > 10 | 5.9 | – | > 10 | > 10 | 33 | 26.2 | 18.5 |
| NC1CN(c2cncc(-c3ccc4[nH]nc(-c5cc6c(N7CCCCC7)ccnc6[nH]5)c4c3)n2)C1 [Compound 606, 1-(6-(3-(4-(Piperidin-1-yl)-1H-pyrrolo[2,3-b]pyridin-2-yl)-1H-indazol-5-yl)pyrazin-2-yl)azetidin-3-amine] | > 10 | 3.62 | – | > 10 | > 10 | 39.1 | 20.2 | 10.2 |
| O=C(Nc1cncc(-c2ccc3[nH]nc(-c4cc5c(-c6cccc(F)c6)ccnc5[nH]4)c3c2)c1)C1CC1 [Compound 20, N-(5-(3-(4-(3-Fluorophenyl)-1H-pyrrolo[2,3-b]pyridin-2-yl)-1H-indazol-5-yl)pyridin-3-yl)cyclopropanecarboxamide] | > 10 | 7.73 | – | 0.035 | 1.06 | 34.5 | – | – |
| c1cc(N2CCCCC2)c2cc(-c3n[nH]c4ccc(-c5cncc(CNCC6CCCC6)c5)cc34)[nH]c2n1 [Compound 193, 1-Cyclopentyl-N-((5-(3-(4-(piperidin-1-yl)-1H-pyrrolo[2,3-b]pyridin-2-yl)-1H-indazol-5-yl)pyridin-3-yl)methyl)methanamine] | > 10 | > 10 | 24.9 | > 10 | > 10 | 18 | 8 | 12.5 |
| CC(C)(C)C(=O)Nc1cncc(-c2ccc3[nH]nc(-c4cc5c(-c6ccc(F)cc6)ccnc5[nH]4)c3c2)c1 [Compound 36, N-(5-(3-(4-(4-Fluorophenyl)-1H-pyrrolo[2,3-b]pyridin-2-yl)-1H-indazol-5-yl)pyridin-3-yl)pivalamide] | > 10 | > 10 | 0 | > 10 | > 10 | 19.3 | 11.7 | 33.1 |
| CN(C)CCOc1cncc(-c2ccc3[nH]nc(-c4cc5c(-c6ccc(F)cc6)ccnc5[nH]4)c3c2)c1 [Compound 531, 2-((5-(3-(4-(4-Fluorophenyl)-1H-pyrrolo[2,3-b]pyridin-2-yl)-1H-indazol-5-yl)pyridin-3-yl)oxy)-N,N-dimethylethan-1-amine] | > 10 | > 10 | 15.6 | > 10 | > 10 | 0 | 2.3 | 4.1 |

Source: patent US10350199B2, “3-(1h-pyrrolo[2,3-b]pyridin-2-yl)-1h-indazoles and therapeutic uses thereof” (Samumed, LLC, priority 2015, dated 2019)
